# Experimental data: US7989495B2, “Compositions and methods for inhibiting NF-κB mediated tumorigenicity and adhesion dependent survival of cancer cells” (University of Utah Research Foundation, priority 2002, dated 2011)
# “Also recorded” adds a separate entry of the source. Peptide text beside a SMILES is read from it. * marks the point of attachment. Cbz = O=C(OCc1ccccc1)*
# Assays:
# Type in all cases: cell-based
# adherent HT-29 cells = experiment: Apoptosis assay (annexin V-FITC / propidium iodide flow cytometry), adherent cells
# Method: The data points represent the average percent of annexin V-positive, propidium iodide-negative cells (of the total cells counted) from triplicate experiments. The error bars represent the standard error of the means. […] The results shown are a graphic representation of individual flow cytometry results expressed as the percentage of cells that were annexin V-positive of those that excluded propidium iodide. […] An immunoblot of the lysates for cleaved PARP was performed. Each lane represents equal total protein concentrations. […] The cells were allowed to adhere to plastic dishes for 1 hour after which they were washed gently in PBS and stained with crystal violet. The crystal violet stained cells were solubilized in deoxycholate and the absorbance detected in a spectrophotometer at 590 nm. The adherent cells were expressed as a fraction of the controls Each data point represents the average of triplicate experiments and the error bars the standard errors of the means.
# (§1) Single cell suspensions were plated at 100,000 cells per well in 24-well plates in media containing DMSO, BAY 11-7082, BAY 11-7085, or MG-132 for 8-24 hours in an incubator. Alternatively, DMSO, BAY 11-7082, BAY 11-7085, or MG-132 were added to cells that were confluent and adherent for several days. The nonadherent cells were aspirated off with the media and spun for 3 minutes at 2,000 rpm in 15 ml polypropylene tubes. The adherent cells were washed twice with PBS, dispersed in trypsin, and spun down for 3 minutes at 2,000 rpm in 15 ml polypropylene tubes. The nonadherent and adherent cells were resuspended in 1× binding buffer (10 mM HEPES/NaOH, pH 7.4, 140 mM NaCl, and 2.5 mM CaCl2) to a final concentration of 10^6 cells/ml. 100 μl of the cell solution were transferred to a 5 ml culture tube and incubated with 5 μl of annexin V-FITC-conjugated monoclonal antibody (Pharmingen) and 10 μl of propidium iodide (from a 50 μg/ml stock solution made in PBS) in the dark at 25° C. for 15 minutes. 400 μl of binding buffer was added to each tube and the cells were analyzed by flow cytometry immediately. The percent of apoptosis was determined as the percent of annexin V-positive, propidium iodide-negative cells of the total cells counted.
# [1] = tested on: cleaved PARP in HCT-116 cells; experiment: Immunoblot for cleaved PARP; conditions: 20 μM, 24 hours
# Method: The data points represent the average percent of annexin V-positive, propidium iodide-negative cells (of the total cells counted) from triplicate experiments. The error bars represent the standard error of the means. […] The results shown are a graphic representation of individual flow cytometry results expressed as the percentage of cells that were annexin V-positive of those that excluded propidium iodide. […] An immunoblot of the lysates for cleaved PARP was performed. Each lane represents equal total protein concentrations. […] The cells were allowed to adhere to plastic dishes for 1 hour after which they were washed gently in PBS and stained with crystal violet. The crystal violet stained cells were solubilized in deoxycholate and the absorbance detected in a spectrophotometer at 590 nm. The adherent cells were expressed as a fraction of the controls Each data point represents the average of triplicate experiments and the error bars the standard errors of the means. […]
# (§2) For immunodetection, the blocked blots were probed with primary antibody for 2 hours at 4° C. on a rocker. […] Alkaline phosphatase was detected by a colorimetric reaction using a BCIP (5-Bromo-4-Chloro-3-Indolyl phosphate)/NBT (Nitroblue tetrazolium) kit (Zymed).
# [2] = tested on: cleaved PARP in HT-29 cells; experiment: Immunoblot for cleaved PARP; conditions: 20 μM, 8 h
# Method: The cells were washed twice in ice cold PBS and then lysed in 4° C. lysis buffer (50 mM HEPES, 150 mM NaCl, 1.5 mM MgCl2, 1 mM EGTA, 100 mM NaF, 10 mM Na2PO4, 1 mM Na3VO4, 10% glycerol, 1% Triton X-100, and 1 μg/ml each of aprotinin, leupeptin, chymostatin, pepstatin) and clarified at 12,000 rpm at 4° C. for 15 minutes. The lysates were normalized for total protein concentration. Aliquots of the lysates were then mixed 1:1 in sample buffer (125 mM Tris-HCl (pH 6.8), 20% glycerol. 4% sodium dodecyl sulfate, 2% beta-mercaptoethanol, 10 μg/ml bromophenol blue) and boiled for 3 minutes. The samples were loaded onto SDS-PAGE gels (7.5 or 10% acrylamide). […]
# as §2
# It was confirmed in HT-29 cells that were treated with increasing concentrations of BAY 11-7085 for 24 h. After separating the HT-29 cells that remained adherent and those that became nonadherent after BAY 11-7085 treatment, the percentage of apoptotic cells was determined for each group. […]
# [3] = tested on: transiently suspended HT-29 cells; experiment: Apoptosis (annexin V) of transiently suspended cells allowed to readhere; conditions: HT-29; various concentrations; 4 h; compared with BAY 11-7085
# Method: HT-29 cells that were either transiently suspended with trypsin-EDTA or adherent for three days, were treated at time zero with DMSO or 10-100 μM BAY 11-7085. The percent of apoptotic cells was determined using the annexin V flow cytometry assay and graphed versus the dose of BAY 11-7085. […] The cells were fixed and immunostained with an NF-κB p65 subunit monoclonal antibody.
# The transiently suspended cells were lysed and allowed to bind to DNA oligonucleotides, containing the NF-κB consensus binding site, that were immobilized to 96-well plates. NF-κB protein bound to the oligonucleotides was detected by an antibody to the p65 subunit that only recognized p65 that is bound to DNA. The positive control was HeLa cells that were stimulated with TNFα A control was performed using excess free NF-κB oligonucleotides (Competitor). […] NF-κB binding activity was determined by the TransAM assay as in FIG. 5A. […] The data shown represent typical results of three separate experiments. […] An immunoblot for COX-2 was performed.
# The percentage of apoptotic cells was determined using the annexin V assay. The data points represent the averages of three experiments; bars, ±SE. E. DLD-1 and F. HT-29 cells were transduced with an adenovirus containing the IκB super-repressor construct. After 3 days, the cells were transiently suspended and allowed to readhere in the presence of subapoptotic concentrations of BAY 11-7085 or DMSO (vehicle) for 8 h. The data are expressed as fractions of cells surviving compared with the controls (no adenovirus) and were quantitatively determined by staining the remaining adherent cells with crystal violet.
# as §1
# Various concentrations of BAY 11-7085 were added to HT-29 cells that were transiently suspended in trypsin-PBS for approximately 15 minutes before replating. The transiently suspended cells were quickly allowed to readhere in order to prevent anoikis. Alternatively, BAY 11-7085 was added to adherent HT-29 cell monolayers.
# [4] = tested on: HCT-116 colon cancer cell line; experiment: Cell proliferation assay (crystal violet, 590 nm); conditions: 10 and 50 μg/ml, after several days of treatment
# Method: (§3) DLD-1, HCT-116, and HT-29 colon cancer cell lines were obtained from the ATCC collection and were cultured in Dulbecco's Modification of Eagle's Medium supplemented with 10% fetal bovine serum, glutamine, penicillin, and streptomycin. 293 cells stably transfected with COX-2 (293-COX-2) under the control of a ponasterone sensitive promoter were cultured in Dulbecco's Modification of Eagle's Medium supplemented with 10% fetal bovine serum, 400 μg/ml of zeocin, 400 μg/ml of G418, glutamine, penicillin, and streptomycin. For induction of COX-2 protein expression, 293-COX-2 cells were cultured for 48 hours in media supplemented with 1 μg/ml of ponasterone. All cells were cultured at 37° C. in a humidified incubator with a 5% CO2 atmosphere.
# (§4) For the cell proliferation assay, cells were dispersed and plated at 40,000 cells/well in 96-well dishes. At various days in culture, the cells were gently washed twice with 100 μl/well of ice-cold blocking buffer (1% radioimmunoassay grade BSA in PBS) and twice with 100 μl/well of ice-cold PBS. The cells were fixed for 10 min in 100% ice-cold methanol (100 μl/well), then allowed to air-dry. The cells were stained with 100μl/well of 0.1% crystal violet in H2O for 10 minutes, then washed gently four times with dd H20 and four times with PBS. The plates were then air-dried completely. The stained cells were then solubilized in 1% sodium deoxycholate, and the plates read at 590 nm in a spectrophotometer. The absorption at 590 nm is proportional to the number of attached cells.
# [5] = tested on: DLD-1 colon cancer cell line; experiment: Cell proliferation assay (crystal violet, 590 nm); conditions: 10 and 50 μg/ml, after several days of treatment
# Method: as §3, §4
# [6] = tested on: HT-29 colon cancer cell line; experiment: Cell proliferation assay (crystal violet, 590 nm); conditions: 10 and 50 μg/ml, after several days of treatment
# Method: as §3, §4
compound,measurement,setting,value
"CC(C)C[C@@H](C=O)NC(=O)[C@H](CC(C)C)NC(=O)[C@H](CC(C)C)NC(=O)OCc1ccccc1 [MG-132, N-[(phenylmethoxy)carbonyl]-L-leucyl-N-[(1S)-1-formyl-3-methylbutyl]-L-leucinamide] (Cbz-Leu-Leu-Leu-aldehyde)","level of apoptosis (annexin V-positive, propidium iodide-negative cells)","adherent HT-29 cells; adherent HT-29, doses up to 20 μM (MG-132 20 μM), 24 hours",relatively greater for MG-132 than BAY 11-7085; also recorded: caused a greater increase in apoptosis
same,cleaved PARP in cells that remained adherent,[1],only a small increase in cleaved PARP
same,cleaved PARP in the non-adherent cells,[1],large increase in cleaved PARP
same,cleaved PARP in cells that remained adherent,[2],only a small increase in cleaved PARP
same,cleaved PARP in the nonadherent cells,[2],large increase in cleaved PARP
same,induction of apoptosis during readhesion,[3],more potently induced apoptosis
"S=C(S)N1CCCC1 [PDTC, pyrrolidine dithiocarbamate]",induction of apoptosis during readhesion,[3],caused apoptosis of HT-29 cells during readhesion
cA2: antagonistic and chimeric TNFα monoclonal antibody purchased from the clinical pharmacy; inhibits TNFα binding to TNFα receptors,inhibition of colon cancer cell proliferation,[4],significant inhibition
same,inhibition of colon cancer cell proliferation,[5],significant inhibition
same,inhibition of colon cancer cell proliferation,[6],significant inhibition
same,effect of cA2 pretreatment on BAY 11-7085-induced apoptosis,"adherent HT-29 cells; HT-29, 50 μg/ml cA2 for 48 hours, then 20 μM BAY 11-7085 for 24 hours",did not diminish BAY 11-7085-induced apoptosis
